The test system of the series is CCRIS mutagenicity, Ames/micronucleus/aberration tests. Description: CCRIS mutagenicity studies.

Active and inactive are the calls of the source. How the calls were made is not given here.

Consider `O=C1NCCN1c1ncc([N+](=O)[O-])s1`, for which the mutagenic call runs as follows: (Test System: AMES SALMONELLA TYPHIMURIUM, Strain/Indicator: TA96(NR), Metabolic Activation: NONE, Method: STANDARD PLATE) “inactive; negative”; (Test System: AMES SALMONELLA TYPHIMURIUM, Strain/Indicator: TA96(NRB), Metabolic Activation: NONE, Method: PREINCUBATION) “active; positive”; (Test System: AMES SALMONELLA TYPHIMURIUM, Strain/Indicator: TA96(NRB), Metabolic Activation: RAT, LIVER, S-9, AROCLOR 1254, Method: PREINCUBATION) “active; positive”; (Test System: AMES SALMONELLA TYPHIMURIUM, Strain/Indicator: TA96(NRC), Metabolic Activation: NONE, Method: PREINCUBATION) “inactive; negative”; (Test System: AMES SALMONELLA TYPHIMURIUM, Strain/Indicator: TA96(NRC), Metabolic Activation: RAT, LIVER, S-9, AROCLOR 1254, Method: PREINCUBATION) “inactive; negative”; (Test System: AMES SALMONELLA TYPHIMURIUM, Strain/Indicator: TA96, Metabolic Activation: NONE, Method: PREINCUBATION) “active; positive”. Further, the mutagenic call by setting is: (Test System: AMES SALMONELLA TYPHIMURIUM, Strain/Indicator: TA96, Metabolic Activation: NONE, Method: STANDARD PLATE) “active; positive”; (Test System: AMES SALMONELLA TYPHIMURIUM, Strain/Indicator: TA96, Metabolic Activation: RAT, LIVER, S-9, AROCLOR 1254, Method: PREINCUBATION) “active; positive”; (Test System: AMES SALMONELLA TYPHIMURIUM, Strain/Indicator: TA97, Metabolic Activation: NONE, Method: PREINCUBATION) “active; positive”; (Test System: AMES SALMONELLA TYPHIMURIUM, Strain/Indicator: TA97, Metabolic Activation: NONE, Method: STANDARD PLATE) “active; positive”; (Test System: AMES SALMONELLA TYPHIMURIUM, Strain/Indicator: TA97, Metabolic Activation: RAT, LIVER, S-9, AROCLOR 1254, Method: PREINCUBATION) “active; positive”; (Test System: AMES SALMONELLA TYPHIMURIUM, Strain/Indicator: TA98(NR), Metabolic Activation: NONE, Method: PREINCUBATION) “active; positive”. Further, the mutagenic call reads like this: (Test System: AMES SALMONELLA TYPHIMURIUM, Strain/Indicator: TA98(NR), Metabolic Activation: NONE, Method: STANDARD PLATE) “inactive; negative”; (Test System: AMES SALMONELLA TYPHIMURIUM, Strain/Indicator: TA98(NR), Metabolic Activation: RAT, LIVER, S-9, AROCLOR 1254, Method: PREINCUBATION) “active; positive”; (Test System: AMES SALMONELLA TYPHIMURIUM, Strain/Indicator: TA98, Metabolic Activation: NONE, Method: PREINCUBATION) “active; positive”; (Test System: AMES SALMONELLA TYPHIMURIUM, Strain/Indicator: TA98, Metabolic Activation: NONE, Method: STANDARD PLATE) “active; positive”; (Test System: AMES SALMONELLA TYPHIMURIUM, Strain/Indicator: TA98, Metabolic Activation: RAT, LIVER, S-9, AROCLOR 1254, Method: PREINCUBATION) “active; positive”; (Test System: AMES SALMONELLA TYPHIMURIUM, Strain/Indicator: TA98, Metabolic Activation: RAT, LIVER, S-9, AROCLOR 1254 OR PHENOBARBITOL, Method: STANDARD PLATE) “active; positive”. For the same molecule, the mutagenic call is “active; positive” (Test System: AMES SALMONELLA TYPHIMURIUM, Strain/Indicator: TA98, Metabolic Activation: RAT, LIVER, S-9, KC500 OR PHENOBARBITAL, Method: LIQUID SUSPENSION); “active; positive” (Test System: AMES SALMONELLA TYPHIMURIUM, Strain/Indicator: TA100(NR), Metabolic Activation: NONE, Method: PREINCUBATION); “inactive; negative” (Test System: AMES SALMONELLA TYPHIMURIUM, Strain/Indicator: TA100(NR), Metabolic Activation: NONE, Method: STANDARD PLATE); “active; positive” (Test System: AMES SALMONELLA TYPHIMURIUM, Strain/Indicator: TA100(NR), Metabolic Activation: RAT, LIVER, S-9, AROCLOR 1254, Method: PREINCUBATION); “active; positive” (Test System: AMES SALMONELLA TYPHIMURIUM, Strain/Indicator: TA100, Metabolic Activation: NONE, Method: PREINCUBATION); “active; positive” (Test System: AMES SALMONELLA TYPHIMURIUM, Strain/Indicator: TA100, Metabolic Activation: RAT, LIVER, S-9, AROCLOR 1254, Method: PREINCUBATION). The mutagenic call is “active; positive” (Test System: AMES SALMONELLA TYPHIMURIUM, Strain/Indicator: TA100, Metabolic Activation: RAT, LIVER, S-9, AROCLOR 1254 OR PHENOBARBITOL, Method: STANDARD PLATE); “active; positive” (Test System: AMES SALMONELLA TYPHIMURIUM, Strain/Indicator: TA100, Metabolic Activation: RAT, LIVER, S-9, KC500 OR PHENOBARBITAL, Method: LIQUID SUSPENSION); “active; positive” (Test System: AMES SALMONELLA TYPHIMURIUM, Strain/Indicator: TA102(NRD), Metabolic Activation: NONE, Method: PREINCUBATION); “active; positive” (Test System: AMES SALMONELLA TYPHIMURIUM, Strain/Indicator: TA102(NRD), Metabolic Activation: RAT, LIVER, S-9, AROCLOR 1254, Method: PREINCUBATION); “active; positive” (Test System: AMES SALMONELLA TYPHIMURIUM, Strain/Indicator: TA102, Metabolic Activation: NONE, Method: PREINCUBATION); “active; positive” (Test System: AMES SALMONELLA TYPHIMURIUM, Strain/Indicator: TA102, Metabolic Activation: NONE, Method: STANDARD PLATE). For the same molecule, the mutagenic call is, setting by setting: (Test System: AMES SALMONELLA TYPHIMURIUM, Strain/Indicator: TA102, Metabolic Activation: RAT, LIVER, S-9, AROCLOR 1254, Method: PREINCUBATION) “active; positive”; (Test System: AMES SALMONELLA TYPHIMURIUM, Strain/Indicator: TA104, Metabolic Activation: NONE, Method: STANDARD PLATE) “inactive; negative”; (Test System: AMES SALMONELLA TYPHIMURIUM, Strain/Indicator: TA1535, Metabolic Activation: NONE, Method: STANDARD PLATE) “inactive; negative”; (Test System: AMES SALMONELLA TYPHIMURIUM, Strain/Indicator: TA1535, Metabolic Activation: RAT, LIVER, S-9, AROCLOR 1254 OR PHENOBARBITOL, Method: STANDARD PLATE) “inactive; negative”; (Test System: AMES SALMONELLA TYPHIMURIUM, Strain/Indicator: TA1537, Metabolic Activation: NONE, Method: STANDARD PLATE) “inactive; negative”; (Test System: AMES SALMONELLA TYPHIMURIUM, Strain/Indicator: TA1537, Metabolic Activation: RAT, LIVER, S-9, AROCLOR 1254 OR PHENOBARBITOL, Method: STANDARD PLATE) “inactive; negative”. Besides, the mutagenic call by setting is: (Test System: AMES SALMONELLA TYPHIMURIUM, Strain/Indicator: TA1538, Metabolic Activation: NONE, Method: STANDARD PLATE) “active; positive”; (Test System: AMES SALMONELLA TYPHIMURIUM, Strain/Indicator: TA1538, Metabolic Activation: RAT, LIVER, S-9, AROCLOR 1254 OR PHENOBARBITOL, Method: STANDARD PLATE) “active; positive”; (Test System: E. COLI, Strain/Indicator: WP2, Metabolic Activation: NONE, Method: SPOT) “active; positive”; (Test System: E. COLI, Strain/Indicator: WP2 UVRA, Metabolic Activation: NONE, Method: SPOT) “active; positive”; (Test System: E. COLI, Strain/Indicator: WP2 UVRA, Metabolic Activation: NONE, Method: STANDARD PLATE) “active; positive”.

As for `O=c1nc(NNCCO)ccn1[C@@H]1O[C@H](CO)[C@@H](O)[C@H]1O`, where the note is “Test System: CHINESE HAMSTER V-79, Strain/Indicator: V-79/6-THIOGUANINE, Metabolic Activation: NONE, Method: REPLATING”, the mutagenic call was “active; positive”.
